According to PubChem BioAssay AID1996:
Converted amounts (≈) assume the structure as drawn.

Conditions: buffer; pH 7.4; 200.0 µM

| Compound | solubility kinetic [µg/mL] |
| --- | --- |
| O=[N+]([O-])c1cccc(OCc2cn3cccnc3n2)c1 | > 40.5 |
| CCOC(=O)C1CCCN(CC(=O)c2c[nH]c3ccc(C)cc23)C1 (stereo unspecified) | 46.5 (≈ 142 µM) |
| Nc1ncccc1OCc1ccc(Br)cc1 | 37.3 (≈ 134 µM) |
| CC(=O)c1cccc(NC(=S)N2CCc3ccccc32)c1 | 3.1 (≈ 10.5 µM) |
| N#CCC(=O)Nc1ccc(C(=O)Nc2cccc(S(N)(=O)=O)c2)cc1 | 46.2 (≈ 129 µM) |
| Cc1ccc(OCC(=O)Nc2cccc3ccccc23)c([N+](=O)[O-])n1 | 31.5 (≈ 93.4 µM) |
| Cc1ccnc(SCc2cn3c(C)cc(C)nc3n2)n1 | > 42.8 |
| O=[N+]([O-])c1ccc(Cl)c(NC2=NCCCCC2)c1 | > 40.2 |
| COc1ccc(-n2c(C)c(C)c3c(NCCCO)ncnc32)cc1 | > 49 |
| CC(=O)Nc1ccccc1C(=O)N1CCN(c2cccc(C)c2C)CC1 | > 52.7 |
| CCN1C(=O)/C(=C/N2CCc3ccccc3C2)SC1=S | < 0.3 |
| COc1ccc2cc(CCNC(=O)CCc3ccccc3)c(=O)[nH]c2c1 | 4.8 (≈ 13.7 µM) |
| CCOC(=O)/C(C#N)=C/Nc1ccsc1C(=O)OC | < 0.3 |
| Cc1cc(NC(=O)Cc2ccsc2)ccc1Br | 4.5 (≈ 14.5 µM) |
| Cc1cccc(-c2noc(CNS(=O)(=O)c3ccccc3)n2)c1 | > 49.4 |
| CCCCN(C)CCNC(=O)c1cn(C)c(=O)c2c1c1ccccc1n2C | > 55.3 |
| Cc1ccc(C(=O)N2CCCC(C(=O)c3cc(F)ccc3F)C2)s1 (stereo unspecified) | 52.3 (≈ 150 µM) |
| NC(=O)CN1C(=O)C(=O)N(Cc2ccccc2Cl)C1=O | > 44.4 |
| Cc1cccc(NC(=O)C[n+]2ccc(N(C)C)cc2)c1.[Cl-] | 45.9 |
| Cc1onc(-c2ccccc2Cl)c1C(=O)Nc1ccc(Cl)cn1 | 1 (≈ 2.87 µM) |
| CC(NCc1ccccc1C(F)(F)F)C(O)c1ccccc1.Cl (stereo unspecified) | > 51.9 |
| Cc1cc(C)cc(NC(=O)CN2C(=O)c3ccccc3C2=O)c1 | 0.5 (≈ 1.62 µM) |
| O=C(CCSCc1ccccc1Cl)NCc1cccs1 | 32.4 (≈ 99.4 µM) |
| COC(=O)C1CCN(C(=O)c2ccc(Cl)c(S(=O)(=O)NCc3ccco3)c2)CC1 | 53.6 (≈ 122 µM) |
| O=C(N/N=C/c1cccnc1)c1cccs1 | > 34.7 |

| Compound | solubility kinetic [µg/mL] |
| --- | --- |
| O/N=C/c1ccc2cccc(O)c2n1 | 26.3 (≈ 140 µM) |
| Cc1c(C)n(C)c2ccc(C(=O)NCCCN3CCCC3)cc12 | > 47 |
| O=C1NC(c2ccc(Br)cc2)Nc2ccccc21 (stereo unspecified) | 9 (≈ 29.7 µM) |
| O=C(Nc1ccc(S(=O)(=O)Nc2ncccn2)cc1)C(F)(F)F | > 51.9 |
| COc1ccc(CNc2c(CO)cnc3c2cnn3C)cc1 | > 44.8 |
| COc1ccc(NC(=O)NC2CCCc3ccccc32)cc1 (stereo unspecified) | 1.9 (≈ 6.41 µM) |
| S=c1sc2c(Cl)ncnc2n1-c1ccccc1 | 8.3 (≈ 29.7 µM) |
| Cc1cccc(Nc2nnc(SCC(=O)NCC3CCCO3)s2)c1C (stereo unspecified) | > 56.8 |
| Cc1cc(C)c(S(=O)(=O)c2ccc(F)cc2C)c(Cl)n1 | 36.8 (≈ 117 µM) |
| Cc1cccc(NC2SC(=O)NC2=O)c1 (stereo unspecified) | > 33.3 |
| O=C(CCN1C(=O)C2C3C=CC(C3)C2C1=O)NC1CCCCC1 (stereo unspecified) | > 47.5 |
| NC(=O)CN1CCN(c2cccc(Cl)c2)CC1 | 33.9 (≈ 134 µM) |
| CC(C)(C)NC(=O)c1ccccc1NC(=O)c1ccc2c(c1)OCO2 | 5.3 (≈ 15.6 µM) |
| Cc1cccc(OCCCCn2c(CO)nc3ccccc32)c1 | 31.4 (≈ 101 µM) |
| CC(=O)Nc1ccc(C(=O)NCC(=O)OCc2ccccc2F)cc1 | 7.5 (≈ 21.8 µM) |
| CS(=O)(=O)Cc1ccc(C(=O)N2CCN(C(=O)c3cccs3)CC2)cc1 | > 58.9 |
| COc1cccc(NC(=O)c2nc(S(C)(=O)=O)ncc2Cl)c1 | 33.6 (≈ 98.3 µM) |
| O=[N+]([O-])c1ccc(/C=C/c2ccc3cccc(O)c3n2)cc1 | < 0.3 |
| COc1ccc(CC(=O)NC2CCCc3ccccc32)cc1 (stereo unspecified) | 15.8 (≈ 53.5 µM) |
| ClCc1cc2ccccc2nc1Cl | 6.5 (≈ 30.6 µM) |
| CC(CCc1ccccc1)NC(=O)c1ccccc1F (stereo unspecified) | 34.4 (≈ 127 µM) |
| Cc1csc(NC(=O)Cn2nc(C)c([N+](=O)[O-])c2C)n1 | > 44.3 |
| CNc1ccc(C(=O)c2ccccc2C(=O)O)cc1[N+](=O)[O-] | > 45 |
| Cc1ccc(C2CC2/C(=N/O)c2ccc(F)cc2)cc1 (stereo unspecified) | 3.1 (≈ 11.5 µM) |
| Cc1cc(C(=O)Nc2cc(S(C)(=O)=O)ccc2Cl)c(C)o1 | 11.8 (≈ 36 µM) |

| Compound | solubility kinetic [µg/mL] |
| --- | --- |
| COc1cccc(CSc2nc3ccncc3[nH]2)c1 | > 40.7 |
| Cc1cc(N2CCCC2)nc2c(C)cccc12 | 7.2 (≈ 31.8 µM) |
| CN(C)C(=S)Nc1cccc(F)c1 | 28.5 (≈ 144 µM) |
| O=C(Nc1ccc(Br)cc1)c1cccnc1N1CCOCC1 | > 54.3 |
| CCOC(=O)c1c(C)[nH]c(C)c1C(=O)COC(=O)C1CC(=O)N(CCc2ccccc2)C1 (stereo unspecified) | > 66.1 |
| COc1ccc(OC)c(S(=O)(=O)N2CCN3CCCC3C2)c1 (stereo unspecified) | > 49 |
| Cc1cc(NC(=O)CSc2c[nH]c3ccccc23)no1 | > 43.1 |
| Br.Cc1ccnc(Nc2nc(-c3ccccc3)cs2)c1 | 0.4 |
| C=CCn1c(O)c(C(C)=Nc2cccc(C(=O)O)c2)c(=O)[nH]c1=O | > 49.4 |
| Cc1ccc(NC(=O)COC(=O)Cn2cnc3ccccc32)c(C)c1 | 42.4 (≈ 126 µM) |
| c1cncc(Nc2c3ccccc3nc3ccccc23)c1 | 2 (≈ 7.37 µM) |
| O=C(NCc1ccccc1)c1nccnc1CO | > 36.5 |
| Cc1c(C)c(C)c2[nH]c(=S)[nH]c2c1C | 0.4 (≈ 1.94 µM) |
| Cc1ccccc1OCc1nc(-c2cccnc2)no1 | 30.2 (≈ 113 µM) |
| CCOC(=O)c1ccc(NC(=S)NC(=O)C2CCCC2)cc1 | < 0.3 |
| O=C(Nc1cccc([N+](=O)[O-])c1)NC1CCCCCCC1 | 3.8 (≈ 13 µM) |
| NC(=O)c1cc[n+](Cc2ccccc2Cl)cc1.[Br-] | > 49.1 |
| COc1ccc(CNC2c3ccccc3-c3ccccc32)cc1OC | 31.4 (≈ 94.7 µM) |
| CCn1c(=O)c(C(=O)NCCCc2ccccc2)c(O)c2ccccc21 | < 0.4 |
| O=C(NCCC1CC1(Cl)Cl)Nc1ccccc1 (stereo unspecified) | > 41 |
| c1ccc(-c2noc(-c3ccno3)n2)nc1 | 25.4 (≈ 119 µM) |
| CC(=NCCc1ccccc1)c1c(O)n(C)c(=O)n(C)c1=O | 37.2 (≈ 123 µM) |
| CCC(C)c1ccc(C(C)NC(=S)NCc2ccc(F)cc2)cc1 (stereo unspecified) | < 0.4 |
| Cn1ncc2c(NCc3ccccc3)nc(NCCCO)nc21 | > 46.9 |
| CCc1ccc(OCCCC(=O)Nc2cccc(C(=O)O)c2)cc1 | > 49.1 |

| Compound | solubility kinetic [µg/mL] |
| --- | --- |
| O=C1NC(c2ccc(Cl)cc2)=COc2ccccc21 | 1.1 (≈ 4.05 µM) |
| Cc1ccccc1CC(=O)NC1CCCc2ccccc21 (stereo unspecified) | 2.7 (≈ 9.66 µM) |
| O=C(c1ccc([N+](=O)[O-])cc1)N1CCN=C1SCc1ccccc1 | 17.4 (≈ 51 µM) |
| N#Cc1ccc(C(=O)OCC(=O)N2CCN(C(=O)c3ccco3)CC2)cc1 | > 55.1 |
| O=C(Nc1ccc(NC(=O)c2cccnc2)cc1)c1ccccc1 | 0.8 (≈ 2.52 µM) |
| Cc1cccc[n+]1CC(=O)c1ccc(Cl)cc1.[Cl-] | 32.9 |
| Cc1ccccc1N1CCN(Cc2nc(Cc3ccccc3)no2)CC1 | 11 (≈ 31.6 µM) |
| CC(CN1CCCC1)OC(=O)c1ccccc1Cl.Cl (stereo unspecified) | > 45.6 |
| CCOc1cc(C=O)ccc1OCC(=O)N1CCCC1 | > 41.6 |
| CC(C)NC(=O)C(=O)Nc1cc2c3c(c1)CCC(=O)N3CCC2 | > 47.3 |
| CC(C)N1CCN(Cc2cnc(-c3ccccc3)s2)CC1CCO (stereo unspecified) | > 51.8 |
| Cc1ccc(N/C=C(\C#N)S(=O)(=O)c2ccccc2)cc1 | 0.7 (≈ 2.35 µM) |
| COc1ccc(NC(=O)CCOc2ccccc2F)cc1S(=O)(=O)N1CCCCC1 | 34.8 (≈ 79.7 µM) |
| COc1ccccc1NC(=O)Cn1cc(C(=O)c2ccco2)c2ccccc21 | 1.2 (≈ 3.21 µM) |
| CCCNc1c(N)c(=O)c1=O | > 23.1 |
| COCCCNc1nc(N)c([N+](=O)[O-])c(N2CCCCCC2)n1 | 47.4 (≈ 146 µM) |
| Cc1cc(C(=O)N2CCN(c3ncccn3)CC2)nn1C | > 43 |
| CCCC(=O)Nc1ccc(S(=O)(=O)Nc2cc(OC)ncn2)cc1 | > 52.6 |
| CC1(C)Cc2nc3[nH]c(=S)[nH]c(=O)c3cc2CO1 | > 39.5 |
| O=C(Nc1ccc(Br)cc1)C1CCCC1 | 7 (≈ 26.1 µM) |
| Cc1ccc(C(=O)NC2CCCCCCC2)c(Cl)c1 | 3.2 (≈ 11.4 µM) |
| N#C/C(=C\c1ccc(Cl)c([N+](=O)[O-])c1)c1ccccn1 | 2.5 (≈ 8.75 µM) |
| CCN(C(=O)COC(=O)c1ccc(O)cc1)c1cccc2ccccc12 | 24.6 (≈ 70.4 µM) |
| C(=C\c1nc(-c2cccnc2)no1)/c1ccccc1 | 3.4 (≈ 13.6 µM) |
| CCOc1ccc(NC(=O)NCc2ccc3c(c2)OCO3)cc1 | 1.8 (≈ 5.73 µM) |

| Compound | solubility kinetic [µg/mL] |
| --- | --- |
| Cc1ccc2[nH]c(C)c(CCNCc3ccco3)c2c1.Cl | 42.9 |
| CC/C(O)=C1\C(=O)CCCC1=NCCc1nc2ccccc2[nH]1 | > 46.7 |
| Cc1cccc(C(CC(=O)NCc2ccco2)c2ccccc2)c1O (stereo unspecified) | > 50.3 |
| CC(C)c1nc2oc3c(N(C)CCO)ncnc3c2c2c1CCC2 | 0.9 (≈ 2.76 µM) |
| COC(=O)C1CC(=O)N(Cc2ccccc2)C1 (stereo unspecified) | > 35 |
| O=C(NCc1ccccc1)N1CCOc2ccccc21 | 31.3 (≈ 117 µM) |
| COc1ccccc1CC(=O)NCC(c1ccco1)N1CCCCC1 (stereo unspecified) | > 51.4 |
| Cc1ccc(SC(C)C(=O)NCc2ccc(F)cc2)cc1 (stereo unspecified) | 8.2 (≈ 27 µM) |
| COc1ccc(OC)c(/C=C/C(=O)OCC(=O)NCc2ccccc2)c1 | 15.1 (≈ 42.5 µM) |
| COc1ccc(NC2SC(=O)N(C)C2=O)cc1 (stereo unspecified) | 37.6 (≈ 149 µM) |
| COc1ccccc1OCC(=O)Nc1ncc(C)s1 | 41.2 (≈ 148 µM) |
| O=C(COC(=O)c1ccccc1)NCCC1=CCCCC1 | 24.1 (≈ 83.9 µM) |
| CCOc1cc2c(C#N)c(N3CCNCC3)nc(N)c2c(N)n1 | 1.3 (≈ 4.15 µM) |
| Fc1ccccc1OCCCCN1CCCCC1 | 27.7 (≈ 110 µM) |
| O=S(=O)(c1ccc(S(=O)(=O)N2CCCC2)cc1)N1CCCCC1 | < 0.4 |
| O=c1[nH]c2ccccc2[n+]([O-])c1-c1ccccc1 | > 35.7 |
| Cc1csc(SCC(=O)NC(=O)NC(C)C)n1 | > 41 |
| Cc1onc(C(=O)NC2CCCCC2)c1[N+](=O)[O-] | > 38 |
| Cc1cc(NC(=O)CC2CCCC2)ccc1Br | 1.6 (≈ 5.4 µM) |
| CS(=O)(=O)c1ccc(C(=O)N2CCc3ccccc3C2)cc1 | > 47.3 |
| Cc1c(NC(=O)c2ccc(NS(=O)(=O)c3ccc(F)c(F)c3)cc2)c(=O)n(-c2ccccc2)n1C | > 74.8 |
